Reference: patent publication US8703224B2, “Method to improve water solubility of Rebaudioside D” (PepsiCo, Inc., priority 2009, dated 2014)

What was measured:
[1] = cited from earlier work
[2] = Oven heating for two hours, mass loss and HPLC check for decomposition; type: physicochemical; details: for Net Loss (weight %) / Net Loss: oven, two hours; for Net Loss: 50 g sample
Procedure: An experiment was performed on four samples (50 g each) of commercially available Reb D. The samples were each heated in an oven for two hours at one of four temperatures: 70°, 80°, 90° and 100° C. The samples were then immediately cooled and weighed to determine any loss in mass. Each sample, including the initial sample, was analyzed using gradient reversed-phase High Performance Liquid Chromatography (HPLC) with Evaporative Light Scattering Detection (ELSD) and Ultra-Violet (UV) detection methods to determine if any significant decomposition occurred.

[3] = Differential Scanning calorimetry (DSC); details: 40°-300° C., heating at 10° C./min
[4] = Water solubility experiment, anhydrous versus non-anhydrous form, solubility versus temperature; type: physicochemical; details: after cooling to room temperature and sitting on a bench-top overnight
Procedure: Equal starting amounts of both substances were placed in equal volumes of water in side-by-side beakers equipped with overhead stirrers and hot plates. As the temperature of the water solution increased and the starting amounts were dissolved, incremental quantities of additional respective sweetener were added.

[5] = Dissolution in water with heating, then cooling to room temperature (stable solution test); type: physicochemical
Procedure: In at least certain exemplary embodiments, such supersaturated aqueous solution has a stable solution of Reb D at a concentration greater than 500 ppm, e.g., 1500 ppm or 3000 ppm. As used here and in the appended claims, a “stable solution” is defined as a solution prepared and stored according to the methods described here where the Reb D remains in solution for a period of time of at least 24 hours at room temperature without forming a precipitate.

[6] = Thermal Gravimetric Analysis (TGA); type: physicochemical; details: 2 mg sample, 10° C./min
Procedure: In a complementary experiment, commercially available Reb D was examined by Thermal Gravimetric Analysis (TGA). TGA is a type of test that may be performed to determine changes in weight as a function of temperature. The method may be used to determine loss of water, or any other volatiles in a compound as it is heated. A derivative weight loss curve can be used to determine at what temperature weight loss is most apparent. A 2 mg sample was placed into a sample boat on a microgram balance (accurate to +/−1 μg) and heated while monitoring the mass. The temperature was increased at 10° C./min while continuing to monitor the mass and graphing the result as a percentage of the original mass. The results from this analysis are shown in FIG. 2 and indicate mass loss beginning at about 50° C. and continuing to about 104° C. and then remaining stable until reaching approximately 260° C., whereupon a large loss of mass was recorded, which corresponds to the decomposition temperature.

[7] = HPLC (ELSD/UV) analysis after heating at 100° C. for 120 hours; type: physicochemical; details: after heating 120 hours at 100° C.
Procedure: It was discovered that upon heating commercially available Reb D, believed to be a non-anhydrous form of Reb D (i.e., hydrate), compound in an oven to a temperature of 100° C. for 120 hours, a thermally stable anhydrous Reb D product was obtained. […] The top graph indicates ELSD detection, and the bottom graph indicates UV detection results taken at a wavelength of 210 nm.
Additional HPLC chromatogram analysis was performed using both an anhydrous sample of Reb D (i.e., after the sample had undergone the process of heating for 120 hours at 100° C.) and a sample that had undergone heating for 24 hours. […] A decomposition peak estimated to be in the range of 2% of the total mass was found in the analysis results from the anhydrous Reb D sample, but its structure was not determined.

C=C1C[C@@]23CC[C@H]4[C@@](C)(CCC[C@@]4(C)C(=O)O[C@@H]4O[C@H](CO)[C@@H](O)[C@H](O)[C@H]4O)[C@@H]2CC[C@]1(O[C@@H]1O[C@H](CO)[C@@H](O)[C@H](O[C@@H]2O[C@H](CO)[C@@H](O)[C@H](O)[C@H]2O)[C@H]1O[C@@H]1O[C@H](CO)[C@@H](O)[C@H](O)[C@H]1O)C3 [Reb A, Rebaudioside A]
solubility in aqueous solution ([1]; room temperature): at least 3000 ppm

C=C1C[C@@]23CC[C@H]4[C@@](C)(CCC[C@@]4(C)C(=O)O[C@@H]4O[C@H](CO)[C@@H](O)[C@H](O)[C@H]4O[C@@H]4O[C@H](CO)[C@@H](O)[C@H](O)[C@H]4O)[C@@H]2CC[C@]1(O[C@@H]1O[C@H](CO)[C@@H](O)[C@H](O[C@@H]2O[C@H](CO)[C@@H](O)[C@H](O)[C@H]2O)[C@H]1O[C@@H]1O[C@H](CO)[C@@H](O)[C@H](O)[C@H]1O)C3 [Reb D, Rebaudioside D]
decomposition by HPLC ([2]; after two hours at 70°, 80°, 90° and 100° C.): little to no decomposition
Net Loss (weight %) ([2]; 70° C.): 0.38 weight %
Net Loss ([2]; 70° C.): 0.19 g
Net Loss (weight %) ([2]; 80° C.): 0.48 weight %
Net Loss ([2]; 80° C.): 0.24 g
Net Loss (weight %) ([2]; 90° C.): 0.76 weight %
Net Loss ([2]; 90° C.): 0.38 g
Net Loss (weight %) ([2]; 100° C.): 1.36 weight %
Net Loss ([2]; 100° C.): 0.68 g
temperature of apparent decomposition (large endothermic event) [3]: about 260 °C
appearance of water solution ([4]; listed as Reb D hydrate): full of precipitate
precipitation after cooling ([5]; dissolved in water with heating and allowed to cool): precipitating out of solution within a number of hours
behaviour of heated solution upon cooling (cooled to room temperature (e.g., 25° C.)): precipitates back out of solution within a few hours
stable solubility in aqueous solution (room temperature): no more than 450 ppm
decomposition temperature (large loss of mass) [6]: approximately 260 °C

C=C1C[C@@]23CC[C@H]4[C@@](C)(CCC[C@@]4(C)C(=O)O[C@@H]4O[C@H](CO)[C@@H](O)[C@H](O)[C@H]4O)[C@@H]2CC[C@]1(O[C@@H]1O[C@H](CO)[C@@H](O)[C@H](O)[C@H]1O[C@@H]1O[C@H](CO)[C@@H](O)[C@H](O)[C@H]1O)C3 [Stevioside]
solubility in water ([1]; in words): only sparingly soluble in water

C=C1C[C@@]23CC[C@H]4[C@@](C)(CCC[C@@]4(C)C(=O)O[C@@H]4O[C@H](CO)[C@@H](O)[C@H](O)[C@H]4O[C@@H]4O[C@H](CO)[C@@H](O)[C@H](O)[C@H]4O)[C@@H]2CC[C@]1(O[C@@H]1O[C@H](CO)[C@@H](O)[C@H](O[C@@H]2O[C@H](CO)[C@@H](O)[C@H](O)[C@H]2O)[C@H]1O[C@@H]1O[C@H](CO)[C@@H](O)[C@H](O)[C@H]1O)C3 [anhydrous Reb D, Rebaudioside D]
decomposition by HPLC retention values [7]: no significant level of decomposition
impurity at the 14.1 minute elution mark ([7]; FIG. 6): about 5 % of the total mass
decomposition peak ([7]; FIG. 7): ~2 % of the total mass
appearance of water solution [4]: stayed as a clear solution
time at room temperature with no precipitating out of solution ([5]; 3000 ppm solution after cooling): at least 24 hours
solution concentration ([5]; dissolved in water with heating, cooled to room temperature): 3000 ppm
